{
  "source": "paper PMC9481533",
  "about": "“Structure-based discovery of small molecules that disaggregate Alzheimer’s disease tissue derived tau fibrils in vitro” (Nature Communications, 2022)",
  "type_in_all_cases": "cell-based",
  "key": {"[1]": {"molecular_target": "crude AD brain extracts (tau seeds) in HEK293T tau biosensor cells (Homo sapiens, UniProt P10636)", "sequence (P10636 623-695 limits assumed)": "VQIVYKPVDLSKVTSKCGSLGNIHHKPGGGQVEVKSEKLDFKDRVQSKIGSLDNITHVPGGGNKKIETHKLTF", "assay": "Tau biosensor cell seeding assay, screen with crude AD brain extracts", "details": "10 μM inhibitor on cells, seeds pre-incubated 16–18 h at 4 °C, individual replicates (n=3), DMSO control 10734.9/12808.5/11145.3", "source_text": "From the in silico screen, compounds were ranked and 46 were selected for further experimental validation based on the total binding energy of the ligand/fibril complex. The experimental assessment consisted of direct measures of fibril disassembly (Fig. 2d, e and Supplementary Table 3) and assessment of the seeding capability of the products of disassembled AD tau fibrils in a biosensor cell assay. Disaggregating molecules that produce active seeds are undesirable for therapy and are excluded from further study. HEK293T cells expressing CFP- or YFP-fused tau are transduced with exogenous AD tau fibrils. Externally applied AD-tau fibrils then induce the aggregation of the endogenous fluorescent tau, resulting in the formation of FRET-positive intracellular aggregates, visible as bright puncta by fluorescence microscopy (Fig. 2f). Automated image analysis of visible puncta provides an objective quantification of seeded aggregation. […] Although biosensors may be limited in reporting structural characteristics of fibril progeny, they offer exquisitely sensitive measures of tau seeding activity—the ability for fibrils to recruit monomeric protein into fibrillar form, which is thought to be the mechanism for tau spreading in AD.\n(§1) Human autopsy samples were obtained by the Mayo Clinic Brain Bank and UCLA Pathology Department according to HHS regulations from patients consenting to autopsy. Samples were provided to the researchers of this study as anonymized tissues. For purification of paired helical filaments (PHFs) and straight filaments (SFs) from AD brain tissue, extractions were performed according to the previously published protocol without any modifications. […] For biosensor seeding assays with crude AD brain extracts, fresh-frozen tissue from neuropathologically confirmed AD cases was thawed and cut into a 0.2–0.3 g sections. Tissue was manually homogenized in a 15 ml disposable tube in 1 ml of 50 mM Tris, pH 7.4 with 150 mM NaCl, and then aliquoted to PCR tubes and sonicated in a cuphorn bath for 120 min under 30% power at 4 °C in a recirculating ice water bath, according to reference.\n(§2) HEK293T cell lines stably expressing tau-K18 P301S-eYFP were obtained from Marc Diamond[25] and used without further characterization or authentication. […] Inhibitors were dissolved in DMSO. […] After twenty minutes, 10 µl of fibrils were added to 90 µl of tau biosensor cells. The number of seeded aggregates was determined by imaging the entire well of a 96-well plate in triplicate using a Celigo Image Cytometer (Nexcelom) in the YFP channel. The number of aggregates in a given image was determined using an ImageJ 2.3.0[50] script, which subtracts the background fluorescence from unseeded cells, and then counts the number of aggregates as peaks with fluorescence above the background using the built-in Particle Analyzer. The number of aggregates was normalized to the confluence of each well, and dose-response plots were generated by calculating the average and standard deviations from triplicate measurements."}, "[2]": {"molecular_target": "brain-purified AD-tau fibrils in HEK293T tau biosensor cells (Homo sapiens, UniProt P10636)", "sequence (P10636 623-695 limits assumed)": "as above", "assay": "Tau biosensor cell seeding assay, dose-dependent inhibition with brain-purified AD-tau fibrils", "details": "individual replicates", "description": "as §1, §2"}, "Neuro2a cells": {"tested_on": "Neuro2a cells", "assay": "MTT cytotoxicity assay", "details": "for MTT cell viability, compound alone, Fig. 3f: Neuro2a, final small molecule concentration 10 µM, 24 h, vehicle = 100% viable, individual replicates, 10 µM", "description": "(§3) In all, 90 µL of Neuro2a cells were plated on clear 96 well plates (Falcon 353072) at 6000 cells per well and given 24 h to adhere to the plate. Subsequent treatment consisted of PHF samples that were co-incubated with or without 100 µM of small molecules for 48 h at 37 °C, with 10 µl applied per well for a final small molecule concentration of 10 µM. After another 24-h incubation at 37 °C, 20 µl of Thiazolyl Blue Tetrazolium Bromide MTT dye (Sigma; 5 mg/ml stock in DPBS) was added to each well and further incubated for 3.5 h at 37 °C. The assay was arrested by replacement of all media with 100% DMSO and transferred to a SpectraMax MF reader. Background 700 nm readings were subtracted from the absorbance readings at 570 nm. Cells treated with 100% DMSO were designated as 0% viable and those treated only with vehicle were designated as 100% viable. Other well readings were normalized to these values."}, "MTT cytotoxicity assay": {"assay": "MTT cytotoxicity assay", "details": "mouse, Neuro2a cells, Neuro2a; final small molecule concentration 10 µM; 24 h; vehicle = 100% viable; individual replicates; read-out: MTT cell viability, compound alone, Fig. 3f", "description": "as §3"}},
  "note": "Where “and” joins values, the source holds several entries; their conditions need not be identical. Equal values may be shown once.",
  "data": [
    {"smiles": "O=C(NC1CCN(CCCCC2(C(=O)NCC(F)(F)F)c3ccccc3-c3ccccc32)CC1)c1ccccc1-c1ccc(C(F)(F)F)cc1", "note": "[FDA-A2, Lomitipide]", "values": [
      {"measurement": "Number of seeded aggregates in tau biosensor cells (normalized to confluence), Fig. 2e", "setting": "[1]; listed as lomitapide", "value": "1844.31 and 2433.57 and 2611.16"},
      {"measurement": "Number of seeded aggregates, Supp. Fig. 7", "setting": "[2]; inhibitor concentration 1 (µM)", "value": "9648.53 and 7383.58 and 7455.51"},
      {"measurement": "Number of seeded aggregates, Supp. Fig. 7", "setting": "[2]; inhibitor concentration 2 (µM)", "value": "5514.78 and 9418.9 and 7841.07"},
      {"measurement": "Number of seeded aggregates, Supp. Fig. 7", "setting": "[2]; inhibitor concentration 5 (µM)", "value": "11341.6 and 15697.2 and 9575.47"},
      {"measurement": "Number of seeded aggregates, Supp. Fig. 7", "setting": "[2]; inhibitor concentration 10 (µM)", "value": "4892.73 and 7401.62 and 3914.28"},
      {"measurement": "Number of seeded aggregates, Supp. Fig. 7", "setting": "[2]; inhibitor concentration 40 (µM)", "value": "2.016 and 15.6712 and 4.096"}
    ]},
    {"smiles": "Cc1cc(C)cc(N2C(=O)N(c3cccc(Cl)c3)C3CS(=O)(=O)CC32)c1", "note": "(stereo not shown) [CNS-12, 1-(3-chlorophenyl)-3-(3,5-dimethylphenyl)tetrahydro-1H-thieno[3,4-d]imidazol-2(3H)-one 5,5-dioxide]", "values": [
      {"measurement": "MTT cell viability, compound alone, Fig. 3f", "setting": "Neuro2a cells", "value": "107.797% and 97.7194% and 77.9839%"}
    ]},
    {"smiles": "Cc1cc(C)c(NC(=O)Cn2nc3c4c(cccc4c2=O)-c2ccccc2-3)c(C)c1", "note": "[CNS-11, N-mesityl-2-(3-oxoindeno[1,2,3-de]phthalazin-2(3H)-yl)acetamide]", "values": [
      {"measurement": "viability at 24 h, 10 µM", "setting": "MTT cytotoxicity assay", "value": 60.2, "unit": "%"},
      {"measurement": "Neuronal cytotoxicity of compound", "setting": "Neuro2a cells; Neuro 2a (N2a) cells, MTT", "value": "significant cytotoxicity"},
      {"measurement": "MTT cell viability, compound alone, Fig. 3f", "setting": "Neuro2a cells", "value": "62.1272% and 57.0691%"}
    ]},
    {"smiles": "Cc1nc2c([nH]1)-c1ccccc1N(C(=O)c1ccc(NC(=O)c3ccccc3-c3ccccc3)cc1)CC2", "note": "[FDA-A-16, Conivaptan]", "values": [
      {"measurement": "Number of seeded aggregates in tau biosensor cells (normalized to confluence), Fig. 2e", "setting": "[1]", "value": "15272 and 13297.5 and 27692"}
    ]},
    {"smiles": "CN1C[C@H](C(=O)N[C@]2(C)O[C@@]3(O)[C@@H]4CCCN4C(=O)[C@H](Cc4ccccc4)N3C2=O)C[C@@H]2c3cccc4[nH]cc(c34)C[C@H]21", "note": "[FDA-A-23, Dihydroergotamine]", "values": [
      {"measurement": "Number of seeded aggregates in tau biosensor cells (normalized to confluence), Fig. 2e", "setting": "[1]; listed as dihydroergotamine mesylate", "value": "6873.71 and 6659.65 and 11949.1"}
    ]},
    {"smiles": "Cn1c(=O)n(C)c2cc3c(cc21)nc1c2cccc4cccc(c(=O)n31)c42", "note": "[CNS-1, 10,12-dimethyl-10,12-dihydro-7H,11H-benzo[de]imidazo[4',5':5,6]benzimidazo[2,1-a]isoquinoline-7,11-dione]", "values": [
      {"measurement": "Number of seeded aggregates in tau biosensor cells (normalized to confluence), Fig. 2e", "setting": "[1]; listed as 7850915", "value": "11080.3 and 15413.1 and 17191"}
    ]},
    {"smiles": "O=C1c2ccccc2C(=O)N1c1nc2nccc(-c3ccccc3)n2n1", "note": "[CNS-2, 2-(7-phenyl[1,2,4]triazolo[1,5-a]pyrimidin-2-yl)-1H-isoindole-1,3(2H)-dione]", "values": [
      {"measurement": "viability at 24 h, 10 µM", "setting": "MTT cytotoxicity assay", "value": 97.5, "unit": "%"},
      {"measurement": "MTT cell viability, compound alone, Fig. 3f", "setting": "Neuro2a cells", "value": "89.5134% and 84.5916%"}
    ]},
    {"smiles": "CNS(=O)(=O)CCc1ccc2[nH]cc(C3CCN(C)CC3)c2c1", "note": "[FDA-R-4, Naratriptan]", "values": [
      {"measurement": "Number of seeded aggregates in tau biosensor cells (normalized to confluence), Fig. 2e", "setting": "[1]", "value": "8578.9 and 6012.3 and 15427"}
    ]},
    {"smiles": "COc1ccccc1NC(=O)c1cc2c(ccc3ccccc32)oc1=O", "note": "[CNS-25, N-(2-methoxyphenyl)-3-oxo-3H-benzo[f]chromene-2-carboxamide]", "values": [
      {"measurement": "Number of seeded aggregates in tau biosensor cells (normalized to confluence), Fig. 2e", "setting": "[1]; listed as 5876327", "value": "13235.2 and 9679.79 and 19134.9"}
    ]},
    {"smiles": "O=[N+]([O-])O[C@@H]1CO[C@H]2[C@@H]1OC[C@@H]2O", "note": "[FDA-R-17, Isosorbide Mononitrate]", "values": [
      {"measurement": "Number of seeded aggregates in tau biosensor cells (normalized to confluence), Fig. 2e", "setting": "[1]; listed as isosorbide mononitrate mw", "value": "7858.85 and 13647.5 and 18697.1"}
    ]},
    {"smiles": "CC(=O)c1ccc(S(=O)(=O)NC(=O)NC2CCCCC2)cc1", "note": "[FDA-R-8, Acetohexamide]", "values": [
      {"measurement": "Number of seeded aggregates in tau biosensor cells (normalized to confluence), Fig. 2e", "setting": "[1]; listed as acetohexamide aka Dymelor", "value": "9289.39 and 6525.19 and 13238.7"}
    ]}
  ]
}
